pIC50: −log10 of the molar value.
Tested on: 931267-113-T-J1-PDC multicell spheroid viability
Assay: Anticancer human tumor 931267-113-T-J1-PDC patient-derived colon adenocarcinoma cell line growth inhibition [PI3K]
Settings: for pIC50: curve of first compound; for viability, T/C: stronger effect = lower value
Procedure, shortened: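 Three cell types, namely tumor cells, endothelial cells and mesenchymal stem cells, formed each spheroid. Combinations with four PI3K inhibitors were screened at clinically achievable concentrations decreasing by half-log, and spheroid viability was recorded.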

[1] = second compound 0.00316 µM, first compound 0.000316 µM
[2] = second compound 0.00316 µM, first compound 0.001 µM
[3] = second compound 0.00316 µM, first compound 0.00316 µM
[4] = second compound 0.00316 µM, first compound 0.01 µM
[5] = second compound 0.00316 µM, first compound 0.0316 µM
[6] = second compound 0.00316 µM, first compound 0.1 µM
[7] = second compound 0.01 µM, first compound 0.000316 µM
[8] = second compound 0.01 µM, first compound 0.001 µM
[9] = second compound 0.01 µM, first compound 0.00316 µM
[10] = second compound 0.01 µM, first compound 0.01 µM
[11] = second compound 0.01 µM, first compound 0.0316 µM
[12] = second compound 0.01 µM, first compound 0.1 µM
[13] = second compound 0.0316 µM, first compound 0.000316 µM
[14] = second compound 0.0316 µM, first compound 0.001 µM
[15] = second compound 0.0316 µM, first compound 0.00316 µM
[16] = second compound 0.0316 µM, first compound 0.01 µM
[17] = second compound 0.0316 µM, first compound 0.0316 µM
[18] = second compound 0.0316 µM, first compound 0.1 µM
[19] = second compound 0.1 µM, first compound 0.000316 µM
[20] = second compound 0.1 µM, first compound 0.001 µM
[21] = second compound 0.1 µM, first compound 0.00316 µM
[22] = second compound 0.1 µM, first compound 0.01 µM
[23] = second compound 0.1 µM, first compound 0.0316 µM
[24] = second compound 0.1 µM, first compound 0.1 µM
[25] = second compound 0.316 µM, first compound 0.000316 µM
[26] = second compound 0.316 µM, first compound 0.001 µM
[27] = second compound 0.316 µM, first compound 0.00316 µM
[28] = second compound 0.316 µM, first compound 0.01 µM
[29] = second compound 0.316 µM, first compound 0.0316 µM
[30] = second compound 0.316 µM, first compound 0.1 µM
[31] = second compound 1 µM, first compound 0.000316 µM
[32] = second compound 1 µM, first compound 0.001 µM
[33] = second compound 1 µM, first compound 0.00316 µM
[34] = second compound 1 µM, first compound 0.01 µM
[35] = second compound 1 µM, first compound 0.0316 µM
[36] = second compound 1 µM, first compound 0.1 µM
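Note: viability read 7 days after compound addition.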

Work on CC(=O)c1c(C)c2cnc(Nc3ccc(N4CCNCC4)cn3)nc2n(C2CCCC2)c1=O + COc1c(OCCCN2CCOCC2)ccc2c3n(c(=NC(=O)c4cnc(N)nc4)nc12)CCN3 yielded a pIC50 (second compound 0.00316 µM) of less than 7.00, a pIC50 (second compound 0.01 µM) of less than 7.00 and a pIC50 (second compound 0.0316 µM) of less than 7.00. It also gave a pIC50 (second compound 0.1 µM) of less than 7.00, a pIC50 (second compound 0.316 µM) of 9.31 and a pIC50 (second compound 1 µM) greater than 9.50. For the same compound, the viability, T/C [1] was 108%, the viability, T/C [2] was 102% and the viability, T/C [3] was 94.8%. The viability, T/C [4] was 99.6%, the viability, T/C [5] was 97.3% and the viability, T/C [6] was 94.8%. The viability, T/C [7] was 105%, the viability, T/C [8] was 97.7% and the viability, T/C [9] was 92.7%. It also gave a viability, T/C [10] of 94%, a viability, T/C [11] of 98.6% and a viability, T/C [12] of 91.5%. It also gave a viability, T/C [13] of 77.5%, a viability, T/C [14] of 84.4% and a viability, T/C [15] of 76.2%. It also gave a viability, T/C [16] of 80.9%, a viability, T/C [17] of 82.3% and a viability, T/C [18] of 79.4%. It also gave a viability, T/C [19] of 70.8%, a viability, T/C [20] of 65% and a viability, T/C [21] of 66.2%. The viability, T/C [22] was 64.1%, the viability, T/C [23] was 67.7% and the viability, T/C [24] was 51.2%. It also gave a viability, T/C [25] of 51.9%, a viability, T/C [26] of 47.2% and a viability, T/C [27] of 47.6%. For the same compound, the viability, T/C [28] was 43.8%, the viability, T/C [29] was 44.5% and the viability, T/C [30] was 37.5%. For the same compound, the viability, T/C [31] was 35.1%, the viability, T/C [32] was 35.9% and the viability, T/C [33] was 32.2%. For the same compound, the viability, T/C [34] was 31.9%, the viability, T/C [35] was 34.3% and the viability, T/C [36] was 26.1%.
With CC(C)n1nc(-c2ccc3oc(N)nc3c2)c2c(N)ncnc21 + COc1c(OCCCN2CCOCC2)ccc2c3n(c(=NC(=O)c4cnc(N)nc4)nc12)CCN3 the pIC50 (second compound 0.00316 µM) was 7.03, the pIC50 (second compound 0.01 µM) was 7.04 and the pIC50 (second compound 0.0316 µM) was 7.16. It also gave a pIC50 (second compound 0.1 µM) of 7.51, a pIC50 (second compound 0.316 µM) of 8.83 and a pIC50 (second compound 1 µM) greater than 9.50. It also gave a viability, T/C [1] of 90.4%, a viability, T/C [2] of 97.9% and a viability, T/C [3] of 94.1%. The viability, T/C [4] was 96%, the viability, T/C [5] was 88.6% and the viability, T/C [6] was 47.3%. It also gave a viability, T/C [7] of 96.2%, a viability, T/C [8] of 90.2% and a viability, T/C [9] of 88.1%. It also gave a viability, T/C [10] of 82.3%, a viability, T/C [11] of 75.4% and a viability, T/C [12] of 47.2%. The viability, T/C [13] was 90.5%, the viability, T/C [14] was 82.1% and the viability, T/C [15] was 80.5%. It also gave a viability, T/C [16] of 72.4%, a viability, T/C [17] of 60.3% and a viability, T/C [18] of 44.6%. For the same compound, the viability, T/C [19] was 76.5%, the viability, T/C [20] was 66% and the viability, T/C [21] was 64.4%. The viability, T/C [22] was 60.9%, the viability, T/C [23] was 51.8% and the viability, T/C [24] was 34.5%. It also gave a viability, T/C [25] of 55.5%, a viability, T/C [26] of 50.8% and a viability, T/C [27] of 46.3%. For the same compound, the viability, T/C [28] was 43.1%, the viability, T/C [29] was 36% and the viability, T/C [30] was 29%. For the same compound, the viability, T/C [31] was 37.1%, the viability, T/C [32] was 35.8% and the viability, T/C [33] was 35.3%. For the same compound, the viability, T/C [34] was 32.1%, the viability, T/C [35] was 27.5% and the viability, T/C [36] was 22.2%.
With CCCS(=O)(=O)Nc1ccc(F)c(C(=O)c2c[nH]c3ncc(-c4ccc(Cl)cc4)cc23)c1F + COc1c(OCCCN2CCOCC2)ccc2c3n(c(=NC(=O)c4cnc(N)nc4)nc12)CCN3 the pIC50 (second compound 0.00316 µM) was 5.20, the pIC50 (second compound 0.01 µM) was 5.22 and the pIC50 (second compound 0.0316 µM) was 5.23. For the same compound, the pIC50 (second compound 0.1 µM) was 5.30, the pIC50 (second compound 0.316 µM) was 5.44 and the pIC50 (second compound 1 µM) was greater than 7.50. It also gave a viability, T/C [5] of 111%, a viability, T/C [6] of 116% and a viability, T/C (second compound 0.00316 µM, first compound 0.316 µM) of 104%. It also gave a viability, T/C (second compound 0.00316 µM, first compound 1 µM) of 125%, a viability, T/C (second compound 0.00316 µM, first compound 3.16 µM) of 127% and a viability, T/C (second compound 0.00316 µM, first compound 10 µM) of 5.18%. The viability, T/C [11] was 102%, the viability, T/C [12] was 101% and the viability, T/C (second compound 0.01 µM, first compound 0.316 µM) was 108%. The viability, T/C (second compound 0.01 µM, first compound 1 µM) was 109%, the viability, T/C (second compound 0.01 µM, first compound 3.16 µM) was 110% and the viability, T/C (second compound 0.01 µM, first compound 10 µM) was 5.04%. It also gave a viability, T/C [17] of 87.8%, a viability, T/C [18] of 92.2% and a viability, T/C (second compound 0.0316 µM, first compound 0.316 µM) of 93.3%. The viability, T/C (second compound 0.0316 µM, first compound 1 µM) was 111%, the viability, T/C (second compound 0.0316 µM, first compound 3.16 µM) was 101% and the viability, T/C (second compound 0.0316 µM, first compound 10 µM) was 8.61%. It also gave a viability, T/C [23] of 75.4%, a viability, T/C [24] of 68.6% and a viability, T/C (second compound 0.1 µM, first compound 0.316 µM) of 77.2%. The viability, T/C (second compound 0.1 µM, first compound 1 µM) was 85.2%, the viability, T/C (second compound 0.1 µM, first compound 3.16 µM) was 77.6% and the viability, T/C (second compound 0.1 µM, first compound 10 µM) was 9.09%. It also gave a viability, T/C [29] of 55.8%, a viability, T/C [30] of 51.3% and a viability, T/C (second compound 0.316 µM, first compound 0.316 µM) of 59.2%. It also gave a viability, T/C (second compound 0.316 µM, first compound 1 µM) of 56.7%, a viability, T/C (second compound 0.316 µM, first compound 3.16 µM) of 57.2% and a viability, T/C (second compound 0.316 µM, first compound 10 µM) of 8.55%. It also gave a viability, T/C [35] of 36.3%, a viability, T/C [36] of 39.5% and a viability, T/C (second compound 1 µM, first compound 0.316 µM) of 36.3%. The viability, T/C (second compound 1 µM, first compound 1 µM) was 41.4%, the viability, T/C (second compound 1 µM, first compound 3.16 µM) was 39.7% and the viability, T/C (second compound 1 µM, first compound 10 µM) was 10.2%.

Source: PubChem BioAssay AID1963970 (Molecular Pharmacology Branch, DTP, NCI, 2024)
